Test results reported in the METLIN SMRT retention time set (Domingo-Almenara et al. 2019).

Experiment: gradient 5% acetonitrile 3 min, to 50% in 2 min, to 85% in 15 min, held 3 min, 100 µL/min
Details: column: Zorbax Extend-C18 2.1 x 50 mm; eluents: water / acetonitrile, 0.1% formic acid
Summary of the method: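 Pure standards were analyzed in mixtures of ~100 molecules using HPLC coupled to a quadrupole time-of-flight mass spectrometer, in both positive and negative ionization mode. Separation used a Zorbax Extend-C18 column (2.1 × 50 mm, 1.8 μm) at 100 μL/min, with water and acetonitrile each containing 0.1% formic acid. Dead and dwell volumes were 40 μL and 900 μL, and data were collected over 3 months. Retention time was read from computationally picked adduct peaks, each inspected manually.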

SMILES | RP-LC retention time
COc1ccc(OC)c(NC(=O)c2ccc3nc(-c4ccccc4)cn3c2)c1 | 762 s
CC(C)c1nnc(C2CN(C(=O)c3cccn3C)CC23CCOCC3)o1 (configuration not stated) | 639 s
CS(=O)(=O)N(C1CCOCC1)C1CN(C(=O)CCc2c[nH]c3ccccc23)C1 | 678 s
CC(C)CCN1CCC(N2CCN(S(=O)(=O)c3ccc(F)cc3F)CC2)C1=O (configuration not stated) | 690 s
NC(=O)Cn1c(Cc2ccccc2)nc2ccccc21 | 522 s
Cn1c(=O)c2cc(C(=O)Nc3ccc(Cl)cc3)cnc2n(-c2ccccc2)c1=O | 962 s
CCc1nn(CC(=O)N2CCC(C(N)=O)CC2)c(=O)c2cc3sccc3n12 | 614 s
CCN(Cc1ccccc1)C(=O)C1CCN(c2ncnc3c2oc2ccccc23)CC1 | 871 s
CCCNc1cc(N2CCC(CCC(=O)Nc3cc(C)ccc3C)CC2)ncn1 | 608 s
CC1(C)CC(=O)c2cn(-c3ccccc3)c(=O)c(C(=O)Nc3ccccc3)c2C1 | 803 s
O=C(NCCCN1CCOCC1)c1ccc(OCc2nnc(C(=O)Nc3ccccc3F)s2)cc1 | 658 s
Cc1cc(C)n(-c2ccc(=O)n(CC(=O)NCc3ccc4c(c3)OCO4)n2)n1 | 668 s
CN(C)c1cccc(C(=O)N2CCN(C(=O)C3CC3c3ccc4c(c3)OCO4)CC2)c1 (configuration not stated) | 715 s
CCN(C(=O)C1CCC(C)CC1)c1nc(-c2ccc(C)cc2)cs1 (configuration not stated) | 767 s
COc1ccc(S(=O)(=O)N2CCc3c(c(-c4nnc(-c5ccccc5F)o4)nn3C)C2)cc1 | 882 s
Cc1ccc(NC(=O)Nc2ccc(NC(=O)N3CCCC(C(=O)NCC4CC4)C3)cc2)cc1 (configuration not stated) | 779 s
CCOCCCNC(=O)c1ccc(-c2ccc3c(c2)CCN3C(C)=O)cc1 | 598 s
O=C1CC2OCC=C3CN4CC[C@]56c7ccccc7N1C5[C@H]2[C@H]3C[C@H]46 (some centres not stated) | 583 s
O=C(Nc1cccc(F)c1)C1CCN(S(=O)(=O)c2cc(-c3noc(C4CCC4)n3)cs2)CC1 | 1110 s
Cc1nc(-c2ccccc2)nc2c1CCC(=O)N2C | 868 s

Results, then the compound that gave them:

RP-LC retention time | SMILES
1120 s | C[C@H]1CN(S(=O)(=O)c2ccc(F)cc2)C[C@@H]1c1nc(-c2ccccc2)no1
736 s | COc1cccc(NC(=O)C2CCN(c3nc4ccc(-c5cncnc5)nc4s3)CC2)c1
1300 s | CC(C)c1ccc(-c2csc(NC(=O)c3cccc(Cl)c3)n2)cc1
515 s | CC(=O)N1CCN(C(=O)c2ccc(O)cc2)CC1
654 s | CCCCN(C)C(=O)CCC1CCN(c2cc(NC3CC3)ncn2)CC1
785 s | CCOc1ccc(CNS(=O)(=O)c2cc(-c3c(C)noc3NC(C)=O)ccc2OC)cc1
750 s | C=CCn1ccc2c(OCC(=O)Nc3cc(C)on3)cccc2c1=O
708 s | Cc1noc(C2CCCCCN2C(=O)NC(C)C)n1 (configuration not stated)
815 s | CC1(C(=O)NCc2ccccc2)CN(S(C)(=O)=O)CC(=O)N1Cc1cccc(Br)c1 (configuration not stated)
1070 s | O=C(NCc1ccccc1)Nc1ccc(-c2nc(-c3ccccc3)co2)cc1
863 s | Cc1ccc(S(=O)(=O)N2CCC(n3c(-c4ccco4)nc4cccnc43)C2)cc1 (configuration not stated)
931 s | O=C(NC1CCCC1)c1nc(Cn2c(=O)oc3ccc(Cl)cc32)no1
924 s | CS(=O)(=O)N1CCC(C(=O)Nc2ccc(Cl)cc2)Oc2ccccc21 (configuration not stated)
670 s | O=C1NC(=O)C2(CCc3ccccc32)N1 (configuration not stated)
735 s | COc1ccc(N2C(=O)N[C@@H]3C[C@]2(C)Oc2ccc(C)cc23)cc1OC
690 s | CN(C)c1cccc(C(=O)N2CCN(c3cc(-c4ccccc4)[nH]n3)CC2)c1
604 s | O=C(O)C1CN(C(=O)COc2ccccc2F)C1
